Data from paper PMC12951562, “SH2scan: Mapping SH2 Domain-Ligand Binding Selectivity for Inhibitors and Degraders” (Journal of Medicinal Chemistry, 2026).
Non-standard residues stand in square brackets, D forms with d. Residues, ends and D or L forms follow the SMILES beside them. pY = N[C@@H](Cc1ccc(OP(=O)(O)O)cc1)C(=O)O

How the values were obtained:
Experiment in all cases: biochemical
Assay type in all cases: binding
GRB2 = target: T1, GRB2 (Homo sapiens, UniProt P62993)
T1 construct: the DNA-tagged SH2 domain concentrations used in this study were <0.1 nM; made in house; host or cells: HEK293 (transient transfection; unpurified extract)

PTPN11(SH2dom.C-term.) = target: T2, PTPN11(SH2dom.C-term.) (Homo sapiens, UniProt Q06124)
T2 construct: SH2dom.C-term. denotes SH2 domain closest to C-terminus of protein; made in house; host or cells: HEK293 (transient transfection, unpurified extract)
T2 sequence (Q06124 112-216 limits assumed): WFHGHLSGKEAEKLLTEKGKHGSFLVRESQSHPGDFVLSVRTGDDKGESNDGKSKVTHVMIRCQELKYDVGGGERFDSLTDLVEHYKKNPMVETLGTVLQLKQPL

CBLB = target: T3, CBLB (Homo sapiens, UniProt Q13191)
T3 construct: the DNA-tagged SH2 domain concentrations used in this study were <0.1 nM; made in house; host or cells: HEK293 (transient transfection; unpurified extract)

CBLC = target: T4, CBLC (Homo sapiens, UniProt Q9ULV8)
T4 construct: the DNA-tagged SH2 domain concentrations used in this study were <0.1 nM; made in house; host or cells: HEK293 (transient transfection; unpurified extract)
T4 sequence (Q9ULV8 219-321 limits assumed): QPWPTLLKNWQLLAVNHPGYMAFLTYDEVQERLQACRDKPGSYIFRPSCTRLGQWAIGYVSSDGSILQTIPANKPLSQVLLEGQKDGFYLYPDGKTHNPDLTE

GRAP = target: T5, GRAP (Homo sapiens, UniProt Q13588)
T5 construct: the DNA-tagged SH2 domain concentrations used in this study were <0.1 nM; made in house; host or cells: HEK293 (transient transfection; unpurified extract)

SRMS = target: T6, SRMS (Homo sapiens, UniProt Q9H3Y6)
T6 construct: made in house; host or cells: HEK293 (transient transfection), unpurified extract

SH2D1B = target: T7, SH2D1B (Homo sapiens, UniProt O14796)
T7 construct: made in house; host or cells: HEK293 (transient transfection), unpurified extract
T7 sequence (O14796 1-132): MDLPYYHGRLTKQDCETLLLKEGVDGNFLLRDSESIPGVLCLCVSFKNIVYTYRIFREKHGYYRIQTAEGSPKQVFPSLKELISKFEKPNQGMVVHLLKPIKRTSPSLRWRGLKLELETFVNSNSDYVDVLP

FGR = target: T8, FGR (Homo sapiens, UniProt P09769)
T8 construct: the DNA-tagged SH2 domain concentrations used in this study were <0.1 nM; made in house; host or cells: HEK293 (transient transfection; unpurified extract)

LYN = target: T9, LYN (Homo sapiens, UniProt P07948)
T9 construct: the DNA-tagged SH2 domain concentrations used in this study were <0.1 nM; made in house; host or cells: HEK293 (transient transfection, unpurified extract)

SH2B (SH2B1) = target: T10, SH2B (SH2B1) (Homo sapiens, UniProt Q9NRF2)
T10 construct: made in house; host or cells: HEK293 (transient transfection), unpurified extract

SHB = target: T11, SHB (Homo sapiens, UniProt Q15464)
T11 construct: made in house; host or cells: HEK293 (transient transfection), unpurified extract
T11 sequence (Q15464 whole entry): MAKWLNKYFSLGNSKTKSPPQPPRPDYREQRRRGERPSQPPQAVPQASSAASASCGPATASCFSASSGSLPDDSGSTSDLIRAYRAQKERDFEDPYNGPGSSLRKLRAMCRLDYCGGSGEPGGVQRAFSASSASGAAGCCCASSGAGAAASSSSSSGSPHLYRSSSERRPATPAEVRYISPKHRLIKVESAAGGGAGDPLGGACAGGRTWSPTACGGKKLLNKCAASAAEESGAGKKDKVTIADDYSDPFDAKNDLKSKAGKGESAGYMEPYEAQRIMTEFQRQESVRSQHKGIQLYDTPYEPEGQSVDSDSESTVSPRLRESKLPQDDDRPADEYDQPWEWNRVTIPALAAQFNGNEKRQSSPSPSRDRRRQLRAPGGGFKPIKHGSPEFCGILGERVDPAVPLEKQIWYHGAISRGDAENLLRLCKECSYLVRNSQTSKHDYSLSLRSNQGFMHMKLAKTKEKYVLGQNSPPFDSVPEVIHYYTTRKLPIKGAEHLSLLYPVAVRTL

T3 sequence (Q13191 241-343 limits assumed): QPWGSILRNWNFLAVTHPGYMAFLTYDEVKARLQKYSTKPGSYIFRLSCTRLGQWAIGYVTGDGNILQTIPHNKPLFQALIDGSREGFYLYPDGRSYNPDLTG
T6 sequence (Q9H3Y6 whole entry): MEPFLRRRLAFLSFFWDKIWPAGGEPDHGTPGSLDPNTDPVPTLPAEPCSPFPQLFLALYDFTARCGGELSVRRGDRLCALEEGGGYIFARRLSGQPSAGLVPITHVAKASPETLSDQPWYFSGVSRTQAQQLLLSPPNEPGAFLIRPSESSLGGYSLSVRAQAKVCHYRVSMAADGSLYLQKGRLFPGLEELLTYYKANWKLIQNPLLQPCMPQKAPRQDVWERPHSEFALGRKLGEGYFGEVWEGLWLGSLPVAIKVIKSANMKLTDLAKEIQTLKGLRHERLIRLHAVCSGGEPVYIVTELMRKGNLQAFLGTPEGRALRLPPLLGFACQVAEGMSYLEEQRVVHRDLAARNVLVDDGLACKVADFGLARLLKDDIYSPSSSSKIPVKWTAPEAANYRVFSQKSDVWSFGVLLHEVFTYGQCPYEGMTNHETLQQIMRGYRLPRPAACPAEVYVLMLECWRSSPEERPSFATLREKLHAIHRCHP
T9 sequence (P07948 129-226 limits assumed): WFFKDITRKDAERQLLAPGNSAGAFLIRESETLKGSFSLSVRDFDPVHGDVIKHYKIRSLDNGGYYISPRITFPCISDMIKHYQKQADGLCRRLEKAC
T8 sequence (P09769 144-241 limits assumed): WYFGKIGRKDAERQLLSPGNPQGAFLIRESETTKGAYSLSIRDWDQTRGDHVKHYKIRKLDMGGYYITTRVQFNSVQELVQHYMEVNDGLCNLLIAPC
T1 sequence (P62993 60-152 limits assumed): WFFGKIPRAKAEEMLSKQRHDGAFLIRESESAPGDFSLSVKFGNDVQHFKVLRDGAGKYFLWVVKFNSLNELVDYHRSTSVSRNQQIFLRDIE
T5 sequence (Q13588 60-154 limits assumed): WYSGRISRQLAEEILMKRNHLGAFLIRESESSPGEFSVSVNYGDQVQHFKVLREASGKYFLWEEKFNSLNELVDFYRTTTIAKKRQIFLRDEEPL

Work on CC[C@H](C)[C@H](NC(=O)[C@H](Cc1ccc(OP(=O)(O)O)cc1)NC(=O)[C@H](CO)NC(C)=O)C(=O)N[C@@H](CC(N)=O)C(=O)N[C@H](C(=O)N1CCC[C@H]1C(=O)N[C@@H](Cc1ccccc1)C(=O)N[C@H](C(=O)N[C@@H](CO)C(N)=O)[C@@H](C)O)C(C)C (Ac-S[pY]INVPFTS-NH2) yielded a Kd (GRB2) of 69.4 ± 19.4 nM.

For CC[C@H](C)[C@H](NC(=O)[C@@H](NC(=O)[C@H](C)NC(=O)[C@H](Cc1ccc(OP(=O)(O)O)cc1)NC(=O)[C@@H](NC(=O)[C@@H]1CCCN1C(=O)[C@H](CCC(=O)O)NC(=O)[C@@H]1CCCN1C(=O)[C@H](CO)NC(=O)[C@H](C)NC(C)=O)[C@@H](C)CC)[C@@H](C)O)C(=O)N[C@@H](CC(=O)O)C(=O)N[C@@H](Cc1ccccc1)C(=O)N[C@@H](CC(=O)O)C(N)=O [Ac-ASPEPIpYATIDFD-NH2], the Kd (PTPN11(SH2dom.C-term.)) was 403 ± 198 nM.

CC(=O)N[C@@H](CCC(=O)O)C(=O)N[C@@H](CC(=O)O)C(=O)N[C@@H](CO)C(=O)N[C@@H](Cc1ccccc1)C(=O)N[C@@H](CC(C)C)C(=O)N[C@@H](CCC(N)=O)C(=O)N[C@@H](CCCNC(=N)N)C(=O)N[C@@H](Cc1ccc(OP(=O)(O)O)cc1)C(=O)N[C@@H](CO)C(=O)N[C@@H](CO)C(=O)N[C@@H](CC(=O)O)C(=O)N1CCC[C@H]1C(=O)N[C@H](C(N)=O)[C@@H](C)O [Ac-EDSFLQRpYSSDPT-NH2] was tested, and the Kd (CBLB) was 373 ± 114 nM and the Kd (CBLC) was 146 ± 52 nM.

For CC(=O)N[C@@H](CCCCN)C(=O)N1CCC[C@H]1C(=O)N[C@@H](Cc1ccccc1)C(=O)N[C@@H](Cc1ccc(OP(=O)(O)O)cc1)C(=O)N[C@H](C(=O)N[C@@H](CC(N)=O)C(=O)N[C@H](C(=O)N[C@@H](CCC(=O)O)C(=O)N[C@@H](Cc1ccccc1)C(N)=O)C(C)C)C(C)C [Ac-KPFpYVNVEF-NH2] (Ac-KPF[pY]VNVEF-NH2), the Kd (GRAP) was 21.3 ± 4.83 nM and the Kd (SRMS) was 23600 ± 3030 nM.

In the case of CC[C@H](C)[C@H](NC(=O)[C@@H](NC(=O)[C@H](CC(C)C)NC(=O)[C@H](CO)NC(=O)[C@H](CCCCN)NC(C)=O)[C@@H](C)O)C(=O)N[C@@H](Cc1ccc(OP(=O)(O)O)cc1)C(=O)N[C@@H](C)C(=O)N[C@@H](CCC(N)=O)C(=O)N[C@H](C(=O)N[C@@H](CCC(N)=O)C(=O)N[C@@H](CCCCN)C(N)=O)C(C)C [Ac-KSLTIpYAQVQK-NH2] (Ac-KSLTI[pY]AQVQK-NH2), the Kd (SH2D1B) is reported as 0.14 ± 0.03 nM.

CC(=O)N1CCC[C@H]1C(=O)N[C@@H](CCC(=O)O)C(=O)NCC(=O)N[C@@H](CC(=O)O)C(=O)N[C@@H](Cc1ccc(OP(=O)(O)O)cc1)C(=O)N[C@@H](CCC(=O)O)C(=O)N[C@@H](CCC(=O)O)C(=O)N[C@H](C(=O)N[C@@H](CC(C)C)C(=O)N[C@@H](CCC(=O)O)C(N)=O)C(C)C [Ac-PEGDpYEEVLE-NH2] (Ac-PEGD[pY]EEVLE-NH2) showed a Kd (FGR) of 1820 ± 510 nM and a Kd (LYN) of 765 ± 141 nM.

With CC[C@H](C)[C@H](NC(=O)[C@H](CC(N)=O)NC(=O)[C@@H](NC(=O)[C@H](Cc1ccc(OP(=O)(O)O)cc1)NC(=O)[C@H](CCC(=O)O)NC(=O)CNC(=O)[C@@H]1CCCN1C(=O)[C@H](CO)NC(C)=O)C(C)C)C(=O)N[C@@H](CCC(=O)O)C(=O)N[C@@H](Cc1ccccc1)C(=O)NCC(N)=O [Ac-SPGEpYVNIEFG-NH2] the Kd (SH2B (SH2B1)) was 4460 ± 615 nM and the Kd (SHB) was 6030 ± 1090 nM.
